The record followed here is patent US20030095958A1, “Inhibitors of bace” (priority 2001, published 2003).

The target of the assay is BACE (Homo sapiens, UniProt P56817). Put plainly: Ki Determination for the Inhibition of BACE (FS-1 peptide fluorescence cleavage assay). The conditions noted are these: apparent Ki; 50 nM BACE, 10 μM FS-1 substrate, 0.1M sodium acetate pH 4.5. Type of assay: biochemical. The method, then:
Compounds were tested against BACE activity using the following modifications of the method described in J. Ermolieff et al. (2000) Biochemistry 39(51):16263.
All compound evaluations were performed in 0.1M sodium acetate (buffer), pH, 4.5, 10 μM substrate (FS-1 peptide as described in the reference above; this is commercially available), varying concentrations of the test compound or control (DMSO to yeild 2% vol/vol), and 50 nM BACE. The assay volume is 100 μL.
Two microliters of the test compound dissolved in DMSO are added to each well in a 96-well microtiter plate. Seventy eight microliters of BACE are mixed with buffer and added to each well then incubated at room temperature for 15 minutes. A stock solution of 50 μM FS-1 substrate was prepared by addition of an aliquot of FS-1 substrate which was dissolved in DMSO to the buffer and mixed well. The reaction is initiated by addition of 20 μL of the FS-1 mix to the remaining, preincubated assay components. The cleavage reaction of substrate to product is measured using a Molecular Devices fluorescence plate reader with the excitation and emission filter pairs of 355 nm and 495 nm, respectively. Apparent Ki values are determined by fitting the data to the integrated equation for competitive tight binding inhibition.

Some results are limits rather than exact numbers.

BACE, sequence (P56817 46-501): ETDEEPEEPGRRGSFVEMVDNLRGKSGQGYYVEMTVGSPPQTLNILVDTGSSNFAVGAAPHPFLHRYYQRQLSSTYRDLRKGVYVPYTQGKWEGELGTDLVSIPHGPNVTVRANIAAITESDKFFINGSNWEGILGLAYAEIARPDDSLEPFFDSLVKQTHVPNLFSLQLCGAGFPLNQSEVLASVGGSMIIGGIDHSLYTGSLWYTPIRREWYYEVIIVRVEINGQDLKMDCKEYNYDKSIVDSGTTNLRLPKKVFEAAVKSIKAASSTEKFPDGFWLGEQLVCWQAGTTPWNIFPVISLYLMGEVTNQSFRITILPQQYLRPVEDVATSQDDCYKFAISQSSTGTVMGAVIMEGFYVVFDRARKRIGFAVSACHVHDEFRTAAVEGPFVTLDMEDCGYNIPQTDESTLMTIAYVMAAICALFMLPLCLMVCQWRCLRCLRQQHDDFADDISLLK

Consider `O=S(=O)(Nc1cc(C(F)(F)F)ccc1N1CCNCC1)c1ccc2ccccc2c1` [Compound 136, Naphthalene-2-sulfonic acid (2-piperazin-1-yl-5-trifluoromethyl-phenyl)-amide], for which the Ki was greater than 30 µM. Regarding `O=S(=O)(Nc1cc(C(F)(F)F)ccc1N1CCNCC1)c1ccc(-c2ccccc2)cc1` [Compound 137, Biphenyl-4-sulfonic acid (2-piperazin-1-yl-5-trifluoromethyl-phenyl)-amide], the Ki fell in the range of 3 to 30 µM. For `Cc1cc(N2CCNCC2)c(NC(=O)c2cccc3ccccc23)cc1-c1ccc(Cl)c(Cl)c1` [Compound 138, Naphthalene-1-carboxylic acid (3′,4′-dichloro-6-methyl-4-piperazin-1-yl-biphenyl-3-yl)-amide], the Ki is less than 3 µM. In the case of `O=C(Nc1cc(Oc2cccc(Cl)c2)ccc1N1CCNCC1)c1cccc2ccccc12` [Compound 139, Naphthalene-1-carboxylic acid [5-(3-chloro-phenoxy)-2-piperazin-1-yl-phenyl]-amide], the Ki was 3 to 30 µM. As to `Cc1ccccc1Oc1ccc(N2CCNCC2)c(NC(=O)c2cccc3ccccc23)c1` [Compound 140, Naphthalene-1-carboxylic acid (2-piperazin-1-yl-5-o-tolyloxy-phenyl)-amide], the Ki lay within 3 to 30 µM. For `Cc1cccc(Oc2ccc(N3CCNCC3)c(NC(=O)c3cccc4ccccc34)c2)c1` [Compound 141, Naphthalene-1-carboxylic acid (2-piperazin-1-yl-5-m-tolyloxy-phenyl)-amide], the Ki fell in the range of 3 to 30 µM. On to `Cc1ccc(Oc2ccc(N3CCNCC3)c(NC(=O)c3cccc4ccccc34)c2)cc1` [Compound 142, Naphthalene-1-carboxylic acid (2-piperazin-1-yl-5-p-tolyloxy-phenyl)-amide], for which the Ki lay within 3 to 30 µM.

Take `COc1ccc2c(C(=O)Nc3cc(C(F)(F)F)ccc3N3CCNCC3)cccc2c1` [Compound 143, 6-Methoxy-naphthalene-1-carboxylic acid (2-piperazin-1-yl-5-trifluoromethyl-phenyl)-amide]: the Ki was greater than 30 µM. Take `CC(C)NS(=O)(=O)c1ccc(-c2ccc(N3CCNCC3)c(NC(=O)c3cccc4ccccc34)c2)cc1` [Compound 144, Naphthalene-1-carboxylic acid (4′-isopropylsulfamoyl-4-piperazin-1-yl-biphenyl-3-yl)-amide]: the Ki lay in the range of 3 to 30 µM. As for `CCN(CC)S(=O)(=O)c1ccc(-c2ccc(N3CCNCC3)c(NC(=O)c3cccc4ccccc34)c2)cc1` [Compound 145, Naphthalene-1-carboxylic acid (4′-diethylsulfamoyl-4-piperazin-1-yl-biphenyl-3-yl)-amide], the Ki was 3 to 30 µM. With `O=C(Nc1cc(-c2ccc(S(=O)(=O)NCc3ccccc3)cc2)ccc1N1CCNCC1)c1cccc2ccccc12` [Compound 146, Naphthalene-1-carboxylic acid (4′-benzylsulfamoyl-4-piperazin-1-yl-biphenyl-3-yl)-amide], the Ki was less than 3 µM. With `O=C(Nc1cc(-c2ccc(S(=O)(=O)NC3CCCCC3)cc2)ccc1N1CCNCC1)c1cccc2ccccc12` [Compound 147, Naphthalene-1-carboxylic acid (4′-cyclohexylsulfamoyl-4-piperazin-1-yl-biphenyl-3-yl)-amide], the Ki was less than 3 µM. Take `O=C(Nc1cc(C(F)(F)F)cc(Cl)c1N1CCNCC1)c1cccc2ccccc12` [Compound 148, Naphthalene-1-carboxylic acid (3-chloro-2-piperazin-1-yl-5-trifluoromethyl-phenyl)-amide]: the Ki was greater than 30 µM. Regarding `O=C(Nc1cc(C(F)(F)F)ccc1N1CCNCC1)c1cccc2cccnc12` [Compound 149, Quinoline-8-carboxylic acid (2-piperazin-1-yl-5-trifluoromethyl-phenyl)-amide], the Ki lay in the range of 3 to 30 µM. As for `O=C(Nc1cc(C(F)(F)F)ccc1N1CCNCC1)Oc1cccc2ccccc12` [Compound 150, (2-Piperazin-1-yl-5-trifluoromethyl-phenyl)-carbamic acid naphthalen-1-yl ester], the Ki lay in the range of 3 to 30 µM. In the case of `O=C(Nc1cc(C(F)(F)F)ccc1N1CCNCC1)Oc1ccc2ccccc2c1` [Compound 151, (2-Piperazin-1-yl-5-trifluoromethyl-phenyl)-carbamic acid naphthalen-2-yl ester], the Ki lay within 3 to 30 µM.

As to `O=C(Nc1cc(-c2ccoc2)ccc1N1CCNCC1)c1cccc2ccccc12` [Compound 152, Naphthalene-1-carboxylic acid (5-furan-3-yl-2-piperazin-1-yl-phenyl)-amide], the Ki was greater than 30 µM. As to `O=C(Nc1cc(-c2ccsc2)ccc1N1CCNCC1)c1cccc2ccccc12` [Compound 153, Naphthalene-1-carboxylic acid (2-piperazin-1-yl-5-thiophen-3-yl-phenyl)-amide], the Ki fell in the range of 3 to 30 µM.

In the case of `Cc1cc(N2CCNCC2)c(NC(=O)c2cccc3ccccc23)cc1-c1ccoc1` [Compound 154, Naphthalene-1-carboxylic acid (5-furan-3-yl-4-methyl-2-piperazin-1-yl-phenyl)-amide], the Ki was greater than 30 µM.

Turning to `Cc1cc(N2CCNCC2)c(NC(=O)c2cccc3ccccc23)cc1-c1ccsc1` [Compound 155, Naphthalene-1-carboxylic acid (4-methyl-2-piperazin-1-yl-5-thiophen-3-yl-phenyl)-amide], the Ki was in the range of 3 to 30 µM.

Take `O=C(Nc1ccc(OCc2ccccc2)cc1N1CCNCC1)c1cccc2ccccc12` [Compound 156, Naphthalene-1-carboxylic acid (4-benzyloxy-2-piperazin-1-yl-phenyl)-amide]: the Ki is greater than 30 µM. As for `O=C(Nc1cc(F)c(Br)cc1N1CCNCC1)c1cccc2ccccc12` [Compound 157, Naphthalene-1-carboxylic acid (4-bromo-5-fluoro-2-piperazin-1-yl-phenyl)-amide], the Ki was greater than 30 µM. Regarding `O=C(Nc1cc(F)c(-c2ccccc2)cc1N1CCNCC1)c1cccc2ccccc12` [Compound 158, Naphthalene-1-carboxylic acid (2-fluoro-5-piperazin-1-yl-biphenyl-4-yl)-amide], the Ki was 3 to 30 µM. Regarding `O=C(Nc1cc(F)c(-c2ccc(C(F)(F)F)cc2)cc1N1CCNCC1)c1cccc2ccccc12` [Compound 159, Naphthalene-1-carboxylic acid (2-fluoro-5-piperazin-1-yl-4′-trifluoromethyl-biphenyl-4-yl)-amide], the Ki is less than 3 µM.

Regarding `O=C(Nc1cc(F)c(-c2ccoc2)cc1N1CCNCC1)c1cccc2ccccc12` [Compound 160, Naphthalene-1-carboxylic acid (5-fluoro-4-furan-3-yl-2-piperazin-1-yl-phenyl)-amide], the Ki is 3 to 30 µM. On to `O=C(Nc1cc(-c2ccc(C(F)(F)F)cc2F)ccc1N1CCNCC1)c1cccc2ccccc12` [Compound 161, Naphthalene-1-carboxylic acid (2′-fluoro-4-piperazin-1-yl-4′-trifluoromethyl-biphenyl-3-yl)-amide], for which the Ki lay in the range of 3 to 30 µM.

Regarding `O=C(Nc1cc(-c2cc(F)c(C(F)(F)F)cc2F)ccc1N1CCNCC1)c1cccc2ccccc12` [Compound 162, Naphthalene-1-carboxylic acid (2′,5′-difluoro-4-piperazin-1-yl-4′-trifluoromethyl-biphenyl-3-yl)-amide], the Ki was less than 3 µM.
